Patent US10588317B2, “Isoxazoline-substituted benzamides and analogues as insecticides” (priority 2015, dated 2020)
Like-named read-outs stand apart in the source and are kept apart here.

Experiments:
Assay type in all cases: in vivo
Plutella xylostella = Plutella xylostella (diamond back moth), artificial diet; conditions: 120 h, read-out: effect in at least one of the two categories (mortality or growth inhibition); for percent effect (mortality or growth inhibition) at 200 ppm: application rate 200 ppm, L2 larvae, 5 days after infestation
Method: (§1) 24-well microtiter plates with artificial diet were treated with aqueous test solutions prepared from 10'000 ppm DMSO stock solutions by pipetting. After drying, the plates were infested with L2 larvae (10 to 15 per well). The samples were assessed for mortality and growth inhibition in comparison to untreated samples 5 days after infestation.
(§2) The following compounds gave an effect of at least 80% in at least one of the two categories (mortality or growth inhibition) at an application rate of 200 ppm: […]

Diabrotica balteata = Diabrotica balteata (corn root worm), sprayed maize sprouts; conditions: 96 h, read-out: effect in at least one of the two categories (mortality or growth inhibition); for percent effect (mortality or growth inhibition) at 200 ppm: application rate 200 ppm, L2 larvae, 4 days after infestation
Method: as §1, with “Maize sprouts placed onto an agar layer in 24-well” for “24-well”, “plates” for “plates with artificial diet”, “spraying.” for “pipetting.”, “(6” for “(10”, “10” for “15”, “4” for “5”
as §2

Myzus persicae = Myzus persicae (green peach aphid): feeding/contact activity; conditions: 144 h
Method: (§3) Sunflower leaf discs were placed onto agar in a 24-well microtiter plate and sprayed with aqueous test solutions prepared from 10'000 ppm DMSO stock solutions. After drying, the leaf discs were infested with an aphid population of mixed ages. The samples were assessed for mortality 6 days after infestation.

Tetranychus urticae = Tetranychus urticae (two-spotted spider mite): feeding/contact activity; conditions: 192 h
Method: Bean leaf discs on agar in 24-well microtiter plates were sprayed with aqueous test solutions prepared from 10'000 ppm DMSO stock solutions. After drying the leaf discs were infested with a mite population of mixed ages. The samples were assessed for mortality on mixed population (mobile stages) 8 days after infestation.

Spodoptera littoralis = Spodoptera littoralis (Egyptian cotton leaf worm), sprayed cotton leaf discs; conditions: foliar, 72 h, read-out: control (mortality, anti-feeding effect, growth inhibition)
Method: Cotton leaf discs were placed onto agar in 24-well microtiter plates and sprayed with aqueous test solutions prepared from 10'000 ppm DMSO stock solutions. After drying the leaf discs were infested with five L1 larvae. The samples were assessed for mortality, anti-feeding effect, and growth inhibition in comparison to untreated samples 3 days after infestation. Control of Spodoptera littoralis by a test sample is given when at least one of the categories mortality, anti-feedant effect, and growth inhibition is higher than the untreated sample.

Thrips tabaci = Thrips tabaci (onion thrips): feeding/contact activity; conditions: 144 h
Method: as §3, with “on” for “onto”, “in” for “in a”, “plates” for “plate”, “drying” for “drying,”, “a Thrips” for “an aphid”

Euschistus heros = Euschistus heros (neotropical brown stink bug), sprayed soybean leaves; conditions: 120 h, read-out: effect in at least one of the two categories (mortality or growth inhibition); for percent effect (mortality or growth inhibition) at 200 ppm: application rate 200 ppm, N2 nymphs, 5 days after infestation
Method: Soybean leaves on agar in 24-well microtiter plates were sprayed with aqueous test solutions prepared from 10'000 ppm DMSO stock solutions. After drying the leaves were infested with N2 nymphs. The samples were assessed for mortality and growth inhibition in comparison to untreated samples 5 days after infestation.
as §2

[1] = application rate 200 ppm, aphid population of mixed ages, 6 days after infestation, read-out: mortality
[2] = application rate 200 ppm, mixed population (mobile stages), 8 days after infestation, read-out: mortality
[3] = application rate 200 ppm, L1 larvae, 3 days after infestation
[4] = application rate 200 ppm, Thrips population of mixed ages, 6 days after infestation, read-out: mortality

CCCS(=O)(=O)N1CC(NC(=O)c2ccc(C3=NO[C@@](c4cc(Cl)c(F)c(Cl)c4)(C(F)(F)F)C3)cc2C)CO1 (some centres unmarked) [Compound A3]
≥ 80%: percent effect (mortality or growth inhibition) at 200 ppm (Plutella xylostella) | percent effect (mortality or growth inhibition) at 200 ppm (Diabrotica balteata) | mortality at 200 ppm (Myzus persicae; [1]) | mortality at 200 ppm (Tetranychus urticae; [2]) | mortality at 200 ppm (Spodoptera littoralis; [3]) | mortality at 200 ppm (Thrips tabaci; [4]) | percent effect (mortality or growth inhibition) at 200 ppm (Euschistus heros)

CCS(=O)(=O)N1CC(NC(=O)c2ccc(C3=NO[C@@](c4cc(Cl)c(F)c(Cl)c4)(C(F)(F)F)C3)cc2C)CO1 (some centres unmarked) [Compound A4]
≥ 80%: percent effect (mortality or growth inhibition) at 200 ppm (Plutella xylostella) | percent effect (mortality or growth inhibition) at 200 ppm (Diabrotica balteata) | mortality at 200 ppm (Myzus persicae; [1]) | mortality at 200 ppm (Tetranychus urticae; [2]) | mortality at 200 ppm (Spodoptera littoralis; [3]) | mortality at 200 ppm (Thrips tabaci; [4]) | percent effect (mortality or growth inhibition) at 200 ppm (Euschistus heros)

Cc1cc(C2=NO[C@@](c3cc(Cl)c(F)c(Cl)c3)(C(F)(F)F)C2)ccc1C(=O)NC1CON(S(=O)(=O)CCCl)C1 (stereo partly drawn) [Compound A7, N-[2-(2-chloroethylsulfonyl)isoxazolidin-4-yl]-4-[(5S)-5-(3,5-dichloro-4-fluoro-phenyl)-5-(trifluoromethyl)-4H-isoxazol-3-yl]-2-methyl-benzamide]
≥ 80%: percent control (mortality or growth inhibition) at 200 ppm (Plutella xylostella) | percent control (mortality or growth inhibition) at 200 ppm (Diabrotica balteata) | mortality at 200 ppm (Myzus persicae) | mortality at 200 ppm (Tetranychus urticae) | mortality at 200 ppm (Spodoptera littoralis) | mortality at 200 ppm (Thrips tabaci) | percent control (mortality or growth inhibition) at 200 ppm (Euschistus heros)

CS(=O)(=O)N1CC(NC(=O)c2ccc(C3=NO[C@@](c4cc(Cl)c(Cl)c(Cl)c4)(C(F)(F)F)C3)cc2Cl)CO1 (stereo partly drawn) [Compound A15, 2-chloro-N-(2-methylsulfonylisoxazolidin-4-yl)-4-[(5S)-5-(3,4,5-trichlorophenyl)-5-(trifluoromethyl)-4H-isoxazol-3-yl]benzamide]
≥ 80%: percent effect (mortality or growth inhibition) at 200 ppm (Plutella xylostella) | percent effect (mortality or growth inhibition) at 200 ppm (Diabrotica balteata) | mortality at 200 ppm (Myzus persicae; [1]) | mortality at 200 ppm (Tetranychus urticae; [2]) | mortality at 200 ppm (Spodoptera littoralis; [3]) | mortality at 200 ppm (Thrips tabaci; [4]) | percent effect (mortality or growth inhibition) at 200 ppm (Euschistus heros)

Cc1cc(C2=NO[C@@](c3cc(Cl)c(F)c(Cl)c3)(C(F)(F)F)C2)ccc1C(=O)NC1CON(S(=O)(=O)C(C)C)C1 (some centres unmarked) [Compound A17]
≥ 80%: percent effect (mortality or growth inhibition) at 200 ppm (Plutella xylostella) | percent effect (mortality or growth inhibition) at 200 ppm (Diabrotica balteata) | mortality at 200 ppm (Myzus persicae; [1]) | mortality at 200 ppm (Tetranychus urticae; [2]) | mortality at 200 ppm (Spodoptera littoralis; [3]) | mortality at 200 ppm (Thrips tabaci; [4]) | percent effect (mortality or growth inhibition) at 200 ppm (Euschistus heros)

Cc1cc(C2=NO[C@@](c3cc(Cl)c(Cl)c(Cl)c3)(C(F)(F)F)C2)ccc1C(=O)NC1CON(S(=O)(=O)C2CC2)C1 (stereo partly drawn) [Compound A29, N-(2-cyclopropylsulfonylisoxazolidin-4-yl)-2-methyl-4-[(5S)-5-(3,4,5-trichlorophenyl)-5-(trifluoromethyl)-4H-isoxazol-3-yl]benzamide]
≥ 80%: percent effect (mortality or growth inhibition) at 200 ppm (Plutella xylostella) | percent effect (mortality or growth inhibition) at 200 ppm (Diabrotica balteata) | mortality at 200 ppm (Myzus persicae; [1]) | mortality at 200 ppm (Tetranychus urticae; [2]) | mortality at 200 ppm (Spodoptera littoralis; [3]) | mortality at 200 ppm (Thrips tabaci; [4])

Cc1cc(C2=NO[C@@](c3cc(Cl)cc(Cl)c3)(C(F)(F)F)C2)ccc1C(=O)N[C@@H]1CON(S(=O)(=O)CC(=O)N(C)C)C1 [Compound A202, 4-[(5S)-5-(3,5-dichlorophenyl)-5-(trifluoromethyl)-4H-1,2-oxazol-3-yl]-N-[(4S)-2-[2-(dimethylamino)-2-oxoethyl]sulfonyl-1,2-oxazolidin-4-yl]-2-methylbenzamide]
≥ 80%: percent effect (mortality or growth inhibition) at 200 ppm (Plutella xylostella) | percent effect (mortality or growth inhibition) at 200 ppm (Diabrotica balteata) | mortality at 200 ppm (Tetranychus urticae; [2]) | mortality at 200 ppm (Spodoptera littoralis; [3]) | mortality at 200 ppm (Thrips tabaci; [4]) | percent effect (mortality or growth inhibition) at 200 ppm (Euschistus heros)

Cc1cc(C2=NO[C@@](c3cc(Cl)c(F)c(Cl)c3)(C(F)(F)F)C2)ccc1C(=O)N[C@@H]1CON(S(=O)(=O)CC(=O)NO)C1 [Compound A203, 4-[(5S)-5-(3,5-dichloro-4-fluorophenyl)-5-(trifluoromethyl)-4H-1,2-oxazol-3-yl]-N-[(4S)-2-[2-(hydroxyamino)-2-oxoethyl]sulfonyl-1,2-oxazolidin-4-yl]-2-methylbenzamide]
≥ 80%: percent effect (mortality or growth inhibition) at 200 ppm (Plutella xylostella) | percent effect (mortality or growth inhibition) at 200 ppm (Diabrotica balteata) | mortality at 200 ppm (Tetranychus urticae; [2]) | mortality at 200 ppm (Spodoptera littoralis; [3]) | mortality at 200 ppm (Thrips tabaci; [4]) | percent effect (mortality or growth inhibition) at 200 ppm (Euschistus heros)

Cc1cc(C2=NO[C@@](c3cc(Cl)c(F)c(Cl)c3)(C(F)(F)F)C2)ccc1C(=O)N[C@@H]1CON(S(N)(=O)=O)C1 [Compound A208, 4-[(5S)-5-(3,5-dichloro-4-fluorophenyl)-5-(trifluoromethyl)-4H-1,2-oxazol-3-yl]-2-methyl-N-[(4S)-2-sulfamoyl-1,2-oxazolidin-4-yl]benzamide]
≥ 80%: percent effect (mortality or growth inhibition) at 200 ppm (Plutella xylostella) | percent effect (mortality or growth inhibition) at 200 ppm (Diabrotica balteata) | mortality at 200 ppm (Myzus persicae; [1]) | mortality at 200 ppm (Tetranychus urticae; [2]) | mortality at 200 ppm (Spodoptera littoralis; [3]) | mortality at 200 ppm (Thrips tabaci; [4])

Cc1cc(C2=NO[C@@](c3cc(Cl)c(Cl)c(Cl)c3)(C(F)(F)F)C2)ccc1C(=O)N[C@H]1CON(S(=O)(=O)CC(F)(F)F)C1 [Compound A221, 2-methyl-4-[(5S)-5-(3,4,5-trichlorophenyl)-5-(trifluoromethyl)-4H-1,2-oxazol-3-yl]-N-[(4R)-2-(2,2,2-trifluoroethylsulfonyl)-1,2-oxazolidin-4-yl]benzamide]
≥ 80%: percent effect (mortality or growth inhibition) at 200 ppm (Plutella xylostella) | percent effect (mortality or growth inhibition) at 200 ppm (Diabrotica balteata) | mortality at 200 ppm (Tetranychus urticae; [2]) | mortality at 200 ppm (Spodoptera littoralis; [3]) | mortality at 200 ppm (Thrips tabaci; [4]) | percent effect (mortality or growth inhibition) at 200 ppm (Euschistus heros)

Cc1cc(C2=NO[C@](c3cc(Cl)c(F)c(Cl)c3)(C(F)(F)F)C2)ccc1C(=O)N[C@@H]1CON(SC(F)(F)F)C1 [Compound A224, 4-[(5R)-5-(3,5-dichloro-4-fluorophenyl)-5-(trifluoromethyl)-4H-1,2-oxazol-3-yl]-2-methyl-N-[(4S)-2-(trifluoromethylsulfanyl)-1,2-oxazolidin-4-yl]benzamide]
≥ 80%: percent effect (mortality or growth inhibition) at 200 ppm (Plutella xylostella) | percent effect (mortality or growth inhibition) at 200 ppm (Diabrotica balteata) | mortality at 200 ppm (Tetranychus urticae; [2]) | mortality at 200 ppm (Spodoptera littoralis; [3]) | mortality at 200 ppm (Thrips tabaci; [4]) | percent effect (mortality or growth inhibition) at 200 ppm (Euschistus heros)

Cc1cc(C2=NO[C@](c3cc(Cl)c(F)c(Cl)c3)(C(F)(F)F)C2)ccc1C(=O)N[C@H]1CON(S(=O)(=O)CC(F)F)C1 [Compound A225, 4-[(5R)-5-(3,5-dichloro-4-fluorophenyl)-5-(trifluoromethyl)-4H-1,2-oxazol-3-yl]-N-[(4R)-2-(2,2-difluoroethylsulfonyl)-1,2-oxazolidin-4-yl]-2-methylbenzamide]
≥ 80%: percent effect (mortality or growth inhibition) at 200 ppm (Plutella xylostella) | percent effect (mortality or growth inhibition) at 200 ppm (Diabrotica balteata) | mortality at 200 ppm (Tetranychus urticae; [2]) | mortality at 200 ppm (Spodoptera littoralis; [3]) | mortality at 200 ppm (Thrips tabaci; [4]) | percent effect (mortality or growth inhibition) at 200 ppm (Euschistus heros)

Cc1cc(C2=NO[C@](c3cc(Cl)c(F)c(Cl)c3)(C(F)(F)F)C2)ccc1C(=O)N[C@H]1CON(SC(Cl)(Cl)Cl)C1 [Compound A227, 4-[(5R)-5-(3,5-dichloro-4-fluorophenyl)-5-(trifluoromethyl)-4H-1,2-oxazol-3-yl]-2-methyl-N-[(4R)-2-(trichloromethylsulfanyl)-1,2-oxazolidin-4-yl]benzamide]
≥ 80%: percent effect (mortality or growth inhibition) at 200 ppm (Plutella xylostella) | percent effect (mortality or growth inhibition) at 200 ppm (Diabrotica balteata) | mortality at 200 ppm (Tetranychus urticae; [2]) | mortality at 200 ppm (Spodoptera littoralis; [3]) | mortality at 200 ppm (Thrips tabaci; [4]) | percent effect (mortality or growth inhibition) at 200 ppm (Euschistus heros)
